Data as given in PubChem BioAssay (NCI).
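Values below derive from 48-hour exposures of cells grown in 96-well plates, with endpoints linearly interpolated between the two concentrations bracketing the appropriate inhibition level. TGI is the concentration that stops growth completely.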

Key:
Assay in all cases: growth of human tumour cells (NCI), 48 h
[1] = system: KM12 colon
[2] = system: OVCAR-3 ovarian
[3] = system: NCI-H522 lung
[4] = system: SF-268 CNS
[5] = system: HT29 colon
[6] = system: COLO 205 colon
[7] = system: MOLT-4 leukemia
[8] = system: NCI-H226 lung
[9] = system: M19-MEL melanoma
[10] = system: UACC-257 melanoma
[11] = system: LOX IMVI melanoma
[12] = system: M14 melanoma
[13] = system: SNB-19 CNS
[14] = system: NCI-H460 lung
[15] = system: 786-0 renal
[16] = system: SK-MEL-5 melanoma
[17] = system: HCT-116 colon
[18] = system: BT-549 breast
[19] = system: MDA-MB-231 breast
[20] = system: MCF7 breast

Compound | TGI [1] [µM] | TGI [2] [µM] | TGI [3] [µM] | TGI [4] [µM] | TGI [5] [µM] | TGI [6] [µM] | TGI [7] [µM] | TGI [8] [µM] | TGI [9] [µM] | TGI [10] [µM] | TGI [11] [µM] | TGI [12] [µM] | TGI [13] [µM] | TGI [14] [µM] | TGI [15] [µM] | TGI [16] [µM] | TGI [17] [µM] | TGI [18] [µM] | TGI [19] [µM] | TGI [20] [µM]
CO/S(=N/S(=O)(=O)c1ccccc1)c1ccccc1[N+](=O)[O-] (stereo not drawn) | > 100 | > 100 | > 100 | > 100 | > 100 | > 100 | > 100 | > 100 | > 100 | > 100 | > 100 | > 100 | > 100 | > 100 | > 100 | > 100 |  |  |  | 
O=CC1=CCCN(CCc2c[nH]c3ccccc23)C1 | 128 | 95.9 | 139 | 162 | 116 | 149 | > 393 | 102 | 152 | 132 | 12.2 |  | 92.9 | 105 | 117 | 129 | 80.4 |  |  | 
CSc1nc2nccnc2c(=O)[nH]1 |  |  | > 100 | > 100 | > 100 | > 100 | > 100 | > 100 | > 100 | > 100 | > 100 | > 100 | > 100 | > 100 | > 100 | > 100 | > 100 |  |  | 
NS(=O)(=O)c1ccc(N=Nc2ccc(O)cc2)cc1 | > 100 | > 100 | > 100 | > 100 | > 100 | > 100 | > 100 | 89.1 |  | > 100 | > 100 | > 100 | > 100 | > 100 | > 100 | > 100 | > 100 | 62.5 | > 100 | > 100
CC1=C(C(=O)O)N2C(=O)[C@@H](NC(=O)C(c3ccccc3)N3CSC(=S)N(C(C)C)C3)C2SC1 (stereo partly drawn) | > 100 | > 100 | 66.6 |  | > 100 | > 100 | > 100 |  | > 100 | > 100 | > 100 | > 100 | > 100 | > 100 | > 100 | > 100 | > 100 |  |  | 
OC(c1cc2ccccc2[nH]1)C(O)(c1cc2ccccc2[nH]1)c1cc2ccccc2[nH]1 (stereo not drawn) | > 245 | 9.13 | 37.5 | 85.2 | 36.2 | 8.85 | > 245 | 40.4 | 23.1 | 64.6 | 41.8 |  | > 245 | 51.3 | 20.8 | 39.8 | 27.3 |  |  | 
CC1(C)CC[C@]2(C)[C@@H](O)C[C@]3(C)C(=CC[C@@H]4[C@@]5(C)CC[C@H](O)C(C)(C)[C@@H]5CC[C@]43C)[C@@H]2C1 | > 100 | > 100 | > 100 | > 100 | > 100 | > 100 | > 100 | > 100 |  | > 100 | 46.1 | > 100 | > 100 | > 100 | > 100 | > 100 | > 100 | > 100 | 48.6 | > 100
O=C(NC1CCCCC1)NC12CC3CC(CC(F)(C3)C1)C2 | > 100 | > 100 | > 100 |  | > 100 | > 100 | > 100 |  | > 100 | > 100 | > 100 | > 100 | > 100 | > 100 | > 100 | > 100 | > 100 |  |  | 
Cc1ccc2c(ccc3ncc(CNc4ccc(NS(C)(=O)=O)cc4)c32)[nH]1 | 36.6 | 43.8 | 35.5 | 52.5 | 93.6 | 94.4 | 44.7 | 55.6 |  | 34.7 | 46.2 | 33.1 | > 100 | 35.4 | 39.4 | 39.4 | 37.9 | > 100 | 74.5 | 44.5
CC1=C(O)C(=O)C2C(=O)C1C(C)C2c1ccccc1 (stereo not drawn) | > 100 | > 100 | > 100 | > 100 | > 100 | > 100 | > 100 | > 100 | > 100 | > 100 | > 100 | > 100 | > 100 |  | > 100 | > 100 |  |  |  | 
CCOc1cc2c(cc1O)C=C[C@@H]1[C@@H]2CC[C@]2(C)[C@@H](O)CC[C@@H]12 | 20.9 | 6.74 | 7.3 | > 100 | 24.3 | 47.2 | 73.1 | 56.9 |  | > 100 | 30.4 | 28 | > 55.4 | 12.5 | > 43.4 | 23.6 | 16 | > 100 | 28.9 | > 75.8
Cc1ccc(F)c2[nH]c(-c3ccccc3)cc(=O)c12 | > 100 | > 100 | 38.1 | > 67 | > 100 | 24.9 | > 100 | > 100 |  | > 100 | > 100 | > 100 | > 100 | > 100 | > 43.4 | 14.9 | > 100 | > 100 | > 100 | > 20.4
CC(C)(Oc1ccc2c(=O)cc(-c3ccc(Cl)cc3)oc2c1)C(=O)Nc1c(Cl)cccc1Cl | > 100 | > 100 | > 100 | > 100 | > 100 |  | > 100 |  | > 100 | > 100 | > 100 | > 100 | > 100 | > 100 | > 100 | > 100 | > 100 |  |  | 
